Measured values published in patent US8975406B2, “Compound useful for the treatment of degenerative and inflammatory diseases” (Galapagos N.V., priority 2011, dated 2015).

Experiments:
Format in all cases: biochemical
Recombinant human JAK1 = molecular target: T1, Recombinant human JAK1 (Homo sapiens, UniProt P23458); experiment: JAK1 Ulight-JAK1 peptide assay; details: Ulight-JAK1(tyr1023) peptide, 7 μM ATP
T1 construct: catalytic domain (amino acids 866-1154; catalog number PV4774); purchased Invitrogen PV4774
Protocol: Recombinant human JAK1 (catalytic domain, amino acids 866-1154; catalog number PV4774) was purchased from Invitrogen. 1 ng of JAK1 was incubated with 20 nM Ulight-JAK1(tyr1023) peptide (Perkin Elmer catalog number TRF0121) in kinase reaction buffer (25 mM MOPS pH6.8, 0.01% Brij-35, 5 mM MgCl2, 2 mM DTT, 7 μM ATP) with or without 4 μL containing test compound or vehicle (DMSO, 1% final concentration), in a total volume of 20 μL, in a white 384 Opti plate (Perkin Elmer, catalog number 6007290). After 60 min at room temperature, reactions were stopped by adding 20 μL/well of detection mixture (1× detection buffer (Perkin Elmer, catalog number CR97-100C), 0.5 nM Europium-anti-phosphotyrosine (PT66) (Perkin Elmer, catalog number AD0068), 10 mM EDTA). Readout is performed using the Envision with excitation at 320 nm and measuring emission at 615 nm (Perkin Elmer). Kinase activity was calculated by subtracting relative fluorescence units (RFU) obtained in the presence of a positive control inhibitor (10 μM staurosporine) from RFU obtained in the presence of vehicle. The ability of a test compound to inhibit this activity was determined as: Percentage inhibition=((RFU determined for sample with test compound present−RFU determined for sample with positive control inhibitor)divided by(RFU determined in the presence of vehicle−RFU determined for sample with positive control inhibitor))*100.
(§1) Dose dilution series were prepared for the compounds enabling the testing of dose-response effects in the JAK1 assay and the calculation of the IC50 for the compound. Each compound is routinely tested at concentration of 20 μM followed by a ⅕ serial dilution, 10 points in a final concentration of 1% DMSO. When potency of compound series increases, more dilutions are prepared and/or the top concentration are lowered (e.g. 5 μM, 1 μM). The data are expressed as the average IC50 from the assays±standard error of the mean.

Recombinant human JAK2 = molecular target: T2, Recombinant human JAK2 (Homo sapiens, UniProt O60674); experiment: JAK2 Ulight-JAK1 peptide assay; details: Ulight-JAK1(tyr1023) peptide, 7.5 μM ATP
T2 construct: catalytic domain (amino acids 808-1132; catalog number PV4210); GST; purchased Invitrogen PV4210
Protocol: Recombinant human JAK2 (catalytic domain, amino acids […]; catalog number PV4210) was purchased from Invitrogen. 0.0125 mU of JAK2 was incubated with 25 nM Ulight-JAK1(tyr1023) peptide (Perkin Elmer catalog number TRF0121) in kinase reaction buffer (25 mM HEPES pH7.0, 0.01% Triton X-100, 7.5 mM MgCl2, 2 mM DTT, 7.5 μM ATP) with or without 4 μL containing test compound or vehicle (DMSO, 1% final concentration), in a total volume of 20 μL, in a white 384 Opti plate (Perkin Elmer, catalog number 6007290). After 60 min at room temperature, reactions were stopped by adding 20 μL/well of detection mixture (1× detection buffer (Perkin Elmer, catalog number CR97-100C), 0.5 nM Europium-anti-phosphotyrosine (PT66) (Perkin Elmer, catalog number AD0068), 10 mM EDTA). Readout is performed using the Envision with excitation at 320 nm and measuring emission at 615 nm (Perkin Elmer). Kinase activity was calculated by subtracting relative fluorescence units (RFU) obtained in the presence of a positive control inhibitor (10 μM staurosporine) from RFU obtained in the presence of vehicle. The ability of a test compound to inhibit this activity was determined as: Percentage inhibition=((RFU determined for sample with test compound present−RFU determined for sample with positive control inhibitor)divided by(RFU determined in the presence of vehicle−RFU determined for sample with positive control inhibitor))*100.
as §1, with “each compound” for “the compounds”, “JAK2” for “JAK1”

[1] = molecular target: T3, Recombinant human JAK3 catalytic domain (Homo sapiens, UniProt P52333); experiment: JAK3 inhibition assay; details: polyGT substrate, 33P-gamma-ATP filter assay, 1 μM ATP
T3 construct: catalytic domain (amino acids 795-1124; catalog number 08-046); purchased Carna Biosciences 08-046
Protocol: Recombinant human JAK3 catalytic domain (amino acids 795-1124; catalog number 08-046) was purchased from Carna Biosciences. 0.5 ng JAK3 protein was incubated with 2.5 μg polyGT substrate (Sigma catalog number P0275) in kinase reaction buffer (25 mM Tris pH 7.5, 0.5 mM EGTA, 10 mM MgCl2, 2.5 mM DTT, 0.5 mM Na3VO4, 5 mM b-glycerolphosphate, 0.01% Triton X-100, 1 μM non-radioactive ATP, 0.25 μCi ^33P-gamma-ATP (Perkin Elmer, catalog number NEG602K001MC) final concentrations) with or without 5 μL containing test compound or vehicle (DMSO, 1% final concentration), in a total volume of 25 μL, in a polypropylene 96-well plate (Greiner, V-bottom). After 45 min at 30° C., reactions were stopped by adding 25 μL/well of 150 mM phosphoric acid. All of the terminated kinase reaction was transferred to prewashed (75 mM phosphoric acid) 96 well filter plates (Perkin Elmer catalog number 6005177) using a cell harvester (Perkin Elmer). Plates were washed 6 times with 300 μL per well of a 75 mM phosphoric acid solution and the bottom of the plates was sealed. 40 μL/well of Microscint-20 was added, the top of the plates was sealed and readout was performed using the Topcount (Perkin Elmer). Kinase activity was calculated by subtracting counts per min (cpm) obtained in the presence of a positive control inhibitor (10 μM staurosporine) from cpm obtained in the presence of vehicle. The ability of a test compound to inhibit this activity was determined as: Percentage inhibition=((cpm determined for sample with test compound present−cpm determined for sample with positive control inhibitor)divided by(cpm determined in the presence of vehicle−cpm determined for sample with positive control inhibitor))*100.
Dose dilution series were prepared for the compounds enabling the testing of dose-response effects in the JAK3 assay and the calculation of the IC50 for each compound. Each compound was routinely tested at concentration of 20 μM followed by a ⅕ serial dilution, 10 points in a final concentration of 1% DMSO. When potency of compound series increased, more dilutions were prepared and/or the top concentration was lowered (e.g. 5 μM, 1 μM).

T1 sequence (P23458 866-1154): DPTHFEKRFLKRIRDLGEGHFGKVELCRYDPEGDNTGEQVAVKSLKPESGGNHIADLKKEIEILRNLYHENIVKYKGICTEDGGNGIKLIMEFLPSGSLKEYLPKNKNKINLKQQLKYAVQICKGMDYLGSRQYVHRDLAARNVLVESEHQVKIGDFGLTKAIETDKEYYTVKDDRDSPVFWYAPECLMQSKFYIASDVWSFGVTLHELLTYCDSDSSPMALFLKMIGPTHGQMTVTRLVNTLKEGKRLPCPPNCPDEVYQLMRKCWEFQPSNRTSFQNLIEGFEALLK
T2 sequence (O60674 808-1132): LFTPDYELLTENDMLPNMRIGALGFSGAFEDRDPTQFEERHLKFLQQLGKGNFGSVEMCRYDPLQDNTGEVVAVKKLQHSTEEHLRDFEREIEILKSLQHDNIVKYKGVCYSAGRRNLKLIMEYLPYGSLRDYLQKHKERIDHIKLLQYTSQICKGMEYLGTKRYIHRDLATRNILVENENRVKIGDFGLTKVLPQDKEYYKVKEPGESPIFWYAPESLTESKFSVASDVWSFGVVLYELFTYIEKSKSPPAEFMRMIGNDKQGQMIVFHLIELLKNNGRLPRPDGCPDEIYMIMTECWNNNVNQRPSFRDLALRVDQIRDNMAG
T3 sequence (P52333 795-1124): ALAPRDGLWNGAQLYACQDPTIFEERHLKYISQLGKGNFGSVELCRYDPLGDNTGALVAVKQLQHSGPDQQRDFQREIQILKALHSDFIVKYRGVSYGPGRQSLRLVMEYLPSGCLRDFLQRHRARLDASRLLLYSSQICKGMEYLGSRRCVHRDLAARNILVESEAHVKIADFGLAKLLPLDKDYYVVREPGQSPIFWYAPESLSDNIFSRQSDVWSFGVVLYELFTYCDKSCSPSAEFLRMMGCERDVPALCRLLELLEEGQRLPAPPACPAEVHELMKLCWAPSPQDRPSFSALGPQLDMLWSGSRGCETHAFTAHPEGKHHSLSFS

Row | IC50 (Recombinant human JAK1) [nM] | IC50 (Recombinant human JAK2) [nM] | IC50 [1] [nM] | SMILES
1 | 101 to 500 | > 1000 |  | O=C(Nc1nn2cccc(-c3ccc(C(=O)N4CCCCC4)cc3)c2c1Cl)C1CC1 [Compound 16, N-(3-chloro-4-(4-(piperidine-1-carbonyl)phenyl)pyrazolo[1,5-a]pyridin-2-yl)cyclopropanecarboxamide]
2 | 101 to 500 | 101 to 500 |  | COC(=O)N1CCN(Cc2ccc(-c3cccn4nc(NC(C)=O)cc34)cc2)CC1 [Compound 22]
3 | 101 to 500 | 101 to 500 |  | CC(=O)Nc1cc2c(-c3cnc(OCCn4cccn4)c(F)c3)cccn2n1 [Compound 30]
4 | 101 to 500 | 101 to 500 |  | CC(=O)Nc1cc2c(-c3ccc(C(=O)N4COCC4(C)C)cc3)cccn2n1 [Compound 31, N-(4-(4-(4,4-dimethyloxazolidine-3-carbonyl)phenyl)pyrazolo[1,5-a]pyridin-2-yl)acetamide]
5 | 101 to 500 | 101 to 500 |  | CC(=O)Nc1cc2c(-c3ccc(C(=O)N4CCC4)cc3)cccn2n1 [Compound 32, N-(4-(4-(azetidine-1-carbonyl)phenyl)pyrazolo[1,5-a]pyridin-2-yl)acetamide]
6 | 101 to 500 | 101 to 500 | > 1000 | CC(=O)Nc1cc2c(-c3ccc(CC(=O)N4CCC4)cc3)cccn2n1 [Compound 33, N-(4-(4-(2-(azetidin-1-yl)-2-oxoethyl)phenyl)pyrazolo[1,5-a]pyridin-2-yl)acetamide]
7 | > 1000 | 101 to 500 |  | CC(=O)Nc1cc2c(-c3ccc(CC(=O)N4C[C@@H](C)O[C@@H](C)C4)cc3)cccn2n1 [Compound 37, N-(4-(4-(2-((2S,6R)-2,6-dimethylmorpholino)-2-oxoethyl)phenyl)pyrazolo[1,5-a]pyridin-2-yl)acetamide]
8 | 101 to 500 | 101 to 500 |  | CC(=O)Nc1cc2c(-c3ccc(C(=O)N4C[C@@H](C)O[C@@H](C)C4)cc3)cccn2n1 [Compound 39, N-(4-(4-((2S,6R)-2,6-dimethylmorpholine-4-carbonyl)phenyl)pyrazolo[1,5-a]pyridin-2-yl)acetamide]
9 | 101 to 500 | 101 to 500 |  | CC(=O)Nc1cc2c(-c3ccc(C(=O)N4CCCCC4)cc3)cccn2n1 [Compound 40, N-(4-(4-(piperidine-1-carbonyl)phenyl)pyrazolo[1,5-a]pyridin-2-yl)acetamide]
10 | 101 to 500 | 101 to 500 |  | CC(=O)Nc1cc2c(-c3ccc(C(=O)N4CC(F)(F)C4)cc3)cccn2n1 [Compound 41, N-(4-(4-(3,3-difluoroazetidine-1-carbonyl)phenyl)pyrazolo[1,5-a]pyridin-2-yl)acetamide]
11 | 501 to 1000 | 101 to 500 |  | CC(=O)Nc1cc2c(-c3ccc(C(=O)N4CCOCC4)cc3)cccn2n1 [Compound 42, N-(4-(4-(morpholine-4-carbonyl)phenyl)pyrazolo[1,5-a]pyridin-2-yl)acetamide]
